# Patent US12528786B2, “Plasma kallikrein inhibitors” (Merck Sharp & Dohme LLC, priority 2020, dated 2026)
# Target: T1, Human plasma kallikrein (Homo sapiens, UniProt P03952)
# T1 construct: yields a heavy chain (371 amino acids) and a light chain (248 amino acids); purchased Enzyme Research Laboratories
# Assay: Kallikrein Assay (fluorogenic substrate hydrolysis, AFC release)
# Assay type: biochemical
# Conditions: purified Human plasma kallikrein 0.5 nM; substrate Acetyl-K—P—R-AFC 100 mM; 50 mM HEPES pH 7.4
# Description: The effectiveness of a compound of the present invention as an inhibitor of Kallikrein can be determined using a relevant purified serine protease, and an appropriate synthetic substrate. The rate of hydrolysis of the chromogenic or fluorogenic substrate by the relevant serine protease was measured both in the absence and presence of compounds of the present invention. Assays were conducted at room temperature or at 37° C. […] A decrease in the rate of fluorescence change in the presence of inhibitor is indicative of enzyme inhibition. Such methods are known to one skilled in the art. The results of this assay are expressed as the half-maximal inhibitory concentrations (IC50), or the inhibitory constant, Ki.
# Kallikrein determinations were made in 50 mM HEPES buffer at pH 7.4 containing 150 mM NaCl, 5 mM CaCl2), and 0.1% PEG 8000 (polyethylene glycol; Fisher Scientific). Determinations were made using purified Human plasma kallikrein at a final concentration of 0.5 nM (Enzyme Research Laboratories) and the synthetic substrate, Acetyl-K—P—R-AFC (Sigma #C6608) at a concentration of […].
# Activity assays were performed by diluting a stock solution of substrate at least tenfold to a final concentration ≤0.2 Km into a solution containing enzyme or enzyme equilibrated with inhibitor. Times required to achieve equilibration between enzyme and inhibitor were determined in control experiments. The reactions were performed under linear progress curve conditions and fluorescence increase measured at 405 Ex/510 Em nm. Values were converted to percent inhibition of the control reaction (after subtracting 100% Inhibition value). IC50 was determined by inflection point from a four parameter logistic curve fit. Ki was calculated using the Cheng Prusoff equation, Ki=IC50/(1+([S]/Km)).
# T1 sequence (P03952 391-638 limits assumed): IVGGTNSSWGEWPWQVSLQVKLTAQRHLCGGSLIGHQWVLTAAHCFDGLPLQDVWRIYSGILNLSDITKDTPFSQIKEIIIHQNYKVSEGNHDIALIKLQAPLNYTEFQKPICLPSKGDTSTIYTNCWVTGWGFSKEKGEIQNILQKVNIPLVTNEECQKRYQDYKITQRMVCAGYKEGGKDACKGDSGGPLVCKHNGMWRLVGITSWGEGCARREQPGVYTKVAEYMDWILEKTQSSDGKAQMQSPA
# T1 sequence (P03952 20-390 partner limits assumed): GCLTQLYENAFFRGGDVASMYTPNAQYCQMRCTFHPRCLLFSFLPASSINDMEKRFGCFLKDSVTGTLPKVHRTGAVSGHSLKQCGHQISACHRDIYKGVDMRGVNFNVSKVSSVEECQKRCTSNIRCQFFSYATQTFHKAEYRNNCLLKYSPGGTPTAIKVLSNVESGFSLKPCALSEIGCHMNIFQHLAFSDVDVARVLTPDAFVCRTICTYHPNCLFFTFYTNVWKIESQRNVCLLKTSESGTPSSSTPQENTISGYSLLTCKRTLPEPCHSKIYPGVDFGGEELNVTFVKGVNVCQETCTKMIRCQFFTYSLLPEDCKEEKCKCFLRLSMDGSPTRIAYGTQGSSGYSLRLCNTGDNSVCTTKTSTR
row,IC50 [nM],Compound
1,11.3,"COc1cc(N2C[C@H]3C[C@H]3C2=O)ncc1C(C)n1cc(C(=O)N[C@H]2C[C@@H](c3cc(Cl)ccc3C#N)C2)nn1 (single isomer, unassigned) [Example 88, N-((cis)-3-(5-chloro-2-cyanophenyl)cyclobutyl)-1-((R or S)-1-(4-methoxy-6-((1R,5S)-2-oxo-3-azabicyclo[3.1.0]hexan-3-yl)pyridin-3-yl)ethyl)-1H-1,2,3-triazole-4-carboxamide]"
2,17.5,"CC(c1cnc(N2C[C@H]3C[C@H]3C2=O)nc1)n1cc(C(=O)N[C@H]2C[C@@H](c3cc(Cl)ccc3C#N)C2)cn1 (single isomer, unassigned) [Example 4, N-((cis)-3-(5-chloro-2-cyanophenyl)cyclobutyl)-1-((S or R)-1-(2-((1R,5S)-2-oxo-3-azabicyclo[3.1.0]hexan-3-yl)pyrimidin-5-yl)ethyl)-1H-pyrazole-4-carboxamide carboxamide]"
3,41.5,"CC(c1cnc(N2C[C@H]3C[C@H]3C2=O)nc1)n1cc(C(=O)N[C@H]2C[C@@H](c3cc(Cl)ccc3C#N)C2)nn1 (single isomer, unassigned) [Example 78]"
4,26,"Cc1ccc(C#N)c([C@H]2C[C@@H](NC(=O)c3cn(C(C)c4cnc(N5C[C@H]6C[C@H]6C5=O)c(F)c4C)nn3)C2)c1 (single isomer, unassigned) [Example 119, N-((cis)-3-(2-cyano-5-methylphenyl)cyclobutyl)-1-((R or S)-1-(5-fluoro-4-methyl-6-((1R,5S)-2-oxo-3-azabicyclo[3.1.0]hexan-3-yl)pyridin-3-yl)ethyl)-1H-1,2,3-triazole-4-carboxamide]"
5,0.6,"COc1cc(C(C)n2cc(C(=O)N[C@H]3C[C@@](C)(c4cc(Cl)ccc4C#N)C3)nn2)cnc1N1C[C@H]2C[C@H]2C1=O (single isomer, unassigned) [Example 105, N-((cis)-3-(5-chloro-2-cyanophenyl)-3-methylcyclobutyl)-1-((R or S)-1-(5-methoxy-6-((1R,5S)-2-oxo-3-azabicyclo[3.1.0]hexan-3-yl)pyridin-3-yl)ethyl)-1H-1,2,3-triazole-4-carboxamide]"
6,2710,"Cc1cc(N2C[C@H]3C[C@H]3C2=O)ncc1C(C)n1cc(C(=O)N[C@@H]2CC[C@H](c3cc(Cl)ccc3C#N)C2)nn1 (single isomer, unassigned) [Example 62, N-((1R,3S)-3-(5-chloro-2-cyanophenyl)cyclopentyl)-1-((R or S)-1-(4-methyl-6-((1R,5S)-2-oxo-3-azabicyclo[3.1.0]hexan-3-yl)pyridin-3-yl)ethyl)-1H-1,2,3-triazole-4-carboxamide]"
7,7.7,"COc1cc(N2C[C@H]3C[C@H]3C2=O)ncc1[C@@H](C)n1cc(C(=O)N[C@H]2C[C@@H](c3cc(Cl)ccc3C#N)C2)cn1 (single isomer, unassigned) [Example 12]"
8,4.3,"CC(c1ncc(N2C[C@H]3C[C@H]3C2=O)cc1F)n1cc(C(=O)N[C@H]2C[C@@H](c3cc(Cl)ccc3C#N)C2)nn1 (single isomer, unassigned) [Example 93, N-((cis)-3-(5-chloro-2-cyanophenyl)cyclobutyl)-1-((S or R)-1-(3-fluoro-5-((1R,5S)-2-oxo-3-azabicyclo[3.1.0]hexan-3-yl)pyridin-2-yl)ethyl)-1H-1,2,3-triazole-4-carboxamide]"
9,0.7,"Cc1cc([C@@](C)(O)c2cc(C(=O)N[C@H]3C[C@@H](c4cc(Cl)ccc4C#N)C3)no2)cnc1N1C[C@H]2C[C@H]2C1=O (single isomer, unassigned) [Example 156]"
10,4.8,"CC(c1cnc(N2C[C@H]3C[C@H]3C2=O)c(N)c1)n1cc(C(=O)N[C@H]2C[C@@H](c3cc(Cl)ccc3C#N)C2)nn1 (single isomer, unassigned) [Example 107, 1-((R or S)-1-(5-amino-6-((1R,5S)-2-oxo-3-azabicyclo[3.1.0]hexan-3-yl)pyridin-3-yl)ethyl)-N-((cis)-3-(5-chloro-2-cyanophenyl)cyclobutyl)-1H-1,2,3-triazole-4-carboxamide]"
11,7.3,"Cc1cc(C(C)n2cc(C(=O)N[C@H]3C[C@@H](c4cc(Cl)ccc4C#N)C3)cn2)nnc1N1C[C@H]2C[C@H]2C1=O (single isomer, unassigned) [Example 31, N-((cis)-3-(5-chloro-2-cyanophenyl)cyclobutyl)-1-((S or R)-1-(5-methyl-6-((1R,5S)-2-oxo-3-azabicyclo[3.1.0]hexan-3-yl)pyridazin-3-yl)ethyl)-1H-pyrazole-4-carboxamide]"
12,5.4,"Cc1ccc(C#N)c([C@H]2C[C@@H](NC(=O)c3cn(C(C)c4cnc(N5C[C@H]6C[C@H]6C5=O)c(C)c4)nn3)C2)c1 (single isomer, unassigned) [Example 134, N-((cis)-3-(2-cyano-5-methylphenyl)cyclobutyl)-1-((S or R)-1-(5-methyl-6-((1R,5S)-2-oxo-3-azabicyclo[3.1.0]hexan-3-yl)pyridin-3-yl)ethyl)-1H-1,2,3-triazole-4-carboxamide]"
13,10.1,"Cc1cc(C(C)(C)n2cc(C(=O)N[C@H]3C[C@@H](c4cc(Cl)ccc4C#N)C3)nn2)cnc1N1C[C@H]2C[C@H]2C1=O [Example 61, N-((cis)-3-(5-chloro-2-cyanophenyl)cyclobutyl)-1-(2-(5-methyl-6-((1R,5S)-2-oxo-3-azabicyclo[3.1.0]hexan-3-yl)pyridin-3-yl)propan-2-yl)-1H-1,2,3-triazole-4-carboxamide]"
14,1.6,"C[C@H](c1cncc(N2C[C@H]3C[C@H]3C2=O)c1)n1cc(C(=O)N[C@H]2C[C@@H](c3cc(Cl)ccc3C#N)C2)nn1 (single isomer, unassigned) [Example 137]"
15,1.2,"Cc1c(N2C[C@H]3C[C@H]3C2=O)ncc(C(C)n2cc(C(=O)NC3CC(c4cc(Cl)ccc4C#N)C3)cn2)c1F (single isomer, unassigned) [Example 166]"
16,1.9,"Cc1c([C@@H](C)n2cc(C(=O)NC3CC(c4cc(Cl)ccc4C#N)C3)cn2)cnc(N2C[C@H]3C[C@H]3C2=O)c1Cl (single isomer, unassigned) [Example 167]"
17,0.7,"[2H]C1(NC(=O)c2cn([C@@H](C)c3cnc(N4C[C@H]5C[C@H]5C4=O)cc3C)nn2)CC(C)(c2cc(Cl)ccc2C#N)C1 (single isomer, unassigned) [Example 146, N-((trans or cis)-3-(5-chloro-2-cyanophenyl)-3-methylcyclobutyl-1-d)-1-((S)-1-(4-methyl-6-((1R,5S)-2-oxo-3-azabicyclo[3.1.0]hexan-3-yl)pyridin-3-yl)ethyl)-1H-1,2,3-triazole-4-carboxamide]"
18,0.3,"Cc1c(C(C)n2cc(C(=O)N[C@H]3C[C@@H](c4cc(Cl)ccc4C#N)C3)cn2)cnc(N2C[C@H]3C[C@H]3C2=O)c1C (single isomer, unassigned) [Example 39, N-((cis)-3-(5-chloro-2-cyanophenyl)cyclobutyl)-1-((R or S)-1-(4,5-dimethyl-6-((1R,5S)-2-oxo-3-azabicyclo[3.1.0]hexan-3-yl)pyridin-3-yl)ethyl)-1H-pyrazole-4-carboxamide]"
19,15.8,"Cc1c(C(C)n2cc(C(=O)N[C@H]3C[C@@H](c4cc(Cl)ccc4C#N)C3)cn2)nnc(N2C[C@H]3C[C@H]3C2=O)c1C (single isomer, unassigned) [Example 41, N-((cis)-3-(5-chloro-2-cyanophenyl)cyclobutyl)-1-((R or S)-1-(4,5-dimethyl-6-((1R,5S)-2-oxo-3-azabicyclo[3.1.0]hexan-3-yl)pyridazin-3-yl)ethyl)-1H-pyrazole-4-carboxamide]"
20,29.6,"N#Cc1ccc(Cl)cc1[C@H]1C[C@@H](NC(=O)c2cn(C(CO)c3ccc(N4C[C@H]5C[C@H]5C4=O)nc3)nn2)C1 (single isomer, unassigned) [Example 154]"
21,3.9,"COc1cc(C(C)n2cc(C(=O)N[C@H]3C[C@@H](c4cc(C)ccc4C#N)C3)cn2)cnc1N1C[C@H]2C[C@H]2C1=O (single isomer, unassigned) [Example 23, N-((cis)-3-(2-cyano-5-methylphenyl)cyclobutyl)-1-((R or S)-1-(5-methoxy-6-((1R,5S)-2-oxo-3-azabicyclo[3.1.0]hexan-3-yl)pyridin-3-yl)ethyl)-1H-pyrazole-4-carboxamide]"
22,1.1,"Cc1ccc(C#N)c([C@H]2C[C@@H](NC(=O)c3cnn(C(C)c4cnc(N5C[C@H]6C[C@H]6C5=O)cc4C)c3)C2)c1 (single isomer, unassigned) [Example 36, N-((cis)-3-(2-cyano-5-methylphenyl)cyclobutyl)-1-((R or S)-1-(4-methyl-6-((1R,5S)-2-oxo-3-azabicyclo[3.1.0]hexan-3-yl)pyridin-3-yl)ethyl)-1H-pyrazole-4-carboxamide]"
23,11.1,"C[C@@H](c1cncc(N2C[C@H]3C[C@H]3C2=O)c1)n1cc(C(=O)N[C@H]2C[C@@H](c3cc(Cl)ccc3C#N)C2)nn1 (single isomer, unassigned) [Example 138]"
